Results: patent US10561712B2, “Treatment of cancer and inhibition of metastasis using hemoglobin beta subunit” (UNIVERSITY OF MARYLAND, BALTIMORE, priority 2014, dated 2020)

Legend:
[1] = tested on: normal kidney cell line 293T; experiment: Viability of normal cells, 293T; assay type: cell-based; conditions: data not shown
Source text: The influence of HBB on the viability of the normal lung-residing cell lines HPEC (Human pulmonary endothelial cells) and HLMEC (Human lung microvascular endothelial cells) and on the normal kidney cell line 293T and 293A was examined as well.

MacroNB cells [2] = experiment: Cell cycle analysis by flow cytometry, MacroNB cells; assay type: cell-based, human; conditions: HBB (1 μg) for 48 hr
Experimental: Neuroblastoma cells (5×10^5) were plated and after 24 hr, cells were incubated for 48 hr with HBB diluted in starvation medium (RPMI 5% BSA) to a concentration of 10 μg/ml. Neuroblastoma cells incubated with starvation medium containing BSA alone served as control. Cells were pelleted, washed and resuspended in 0.5 ml PBSX1, containing 0.05 ml propidium iodide (PI) (P-4170, Sigma) (50 μg/ml), and 0.05 ml Triton X-100 (Sigma-Aldrich). Flow cytometry analysis was performed using Becton Dickinson FACSort and CellQuest software (Becton Dickinson, Mountain View, Calif.).
The cells were also subjected to measurement of cellular DNA content and cell cycle analysis using flow cytometry. Incubation with human HBB elevated the amount of MicroNB and MacroNB cells in the sub GO phase, by 18% and 11%, respectively (data not shown).

MacroNB cells [3] = experiment: Trypan blue exclusion assay, MacroNB cells; assay type: cell-based, human; conditions: incubation with HBB, results not shown
Experimental: (§1) Neuroblastoma cells were seeded (3×10^4 per well) in a 96-well flat-bottomed tissue culture plate. After an incubation of 24 hr, cells were washed and incubated with the relevant factors (detailed in the following sections) diluted in starvation medium (RPMI-1640 containing 5% bovine serum albumin (BSA); Biological Industries, Kibbutz Beit Haemek, Israel; Sigma-Aldrich). Cell viability under normal conditions (starvation medium containing BSA) or after incubation with the relevant factors was monitored after 72 hr using an XTT (XTT cell proliferation kit; Biological Industries) or MTS-based (CellTiter 96® AQueous One Solution Cell Proliferation Assay; Promega) viability assays according to manufacturer instructions. Cells were also counted using the trypan-blue exclusion assay to verify the results obtained by XTT and MTS-based viability assays.
(§2) The HBB-mediated inhibitory activity was dose dependent (results not shown).

MicroNB cells = experiment: Trypan blue exclusion assay, MicroNB cells; assay type: cell-based, human; conditions: incubation with HBB, results not shown
Experimental: as §1, §2

[4] = tested on: ERK1/2 phosphorylation in MicroNB cells; experiment: ERK1/2 phosphorylation (western blot), MicroNB cells; assay type: cell-based, human; conditions: HBB (1 μg) for 48 hr; in reference to total ERK2; FIG. 4A
Experimental: Lysates of neuroblastoma cells and of mouse organs were resolved on SDS-PAGE after the addition of Laemmli sample buffer, and transferred onto nitrocellulose membrane. The total amount of protein in the lanes was assessed by Ponceau staining prior to blocking of the membrane. The membrane was blocked at room temperature with 3% BSA (Sigma-Aldrich) diluted in TBS-Tween (TBST) for 1 hr. For detection of the target proteins, membranes were incubated with relevant primary antibodies (see “Antibodies”), then washed 3 times×5 min with TBSTX1 and incubated with suitable HRP-conjugated secondary antibodies (see “Antibodies”). Membranes were washed again 5 times×3 min with TBSTX1. The bands were visualized by chemiluminescence-ECL reactions and autoradiography by exposure to Fuji film. The amount of the relevant protein in the lanes was estimated by densitometry using Scion Image software (Scion, Frederick, Md., USA).
Neuroblastoma cells (5×10^6) were plated and after 24 hr the growth medium was replaced with starvation medium (RPMI 0.5% FCS) for 24 hr. […] ERK1/2 phosphorylation was calculated in reference to total ERK2 protein, p38 and TAK1 phosphorylation was calculated in reference to total p38 and TAK1, respectively, as measured by densitometry using Scion Image software (Scion). […]

[5] = tested on: MacroNB cells (human neuroblastoma lung macrometastatic variant); experiment: MTS-based viability assay, MacroNB cells; assay type: cell-based; conditions: 10 μg human HBB, 72 hr, FIG. 3D
Source text: (§3) The human neuroblastoma lung micrometastatic (MicroNB) and macrometastatic (MacroNB) variants were generated using a mouse model for human neuroblastoma metastasis (Nevo et al., 2008) from the parental cell lines MHH-NB11 (Pietsch et al., 1988) and SH-SY5Y (Biedler et al., 1978) as detailed here (Edry Botzer et al., 2011), and were maintained in culture as previously described (Nevo et al., 2008). The MicroNB and MacroNB variants were previously designated DisNB and MetNB, respectively (Edry Botzer et al., 2011). Authentication of MicroNB and MacroNB cells was performed by short tandem repeat analysis of DNA using the Type-it Microsatellite PCR Kit (Qiagen, Valencia, Calif.), for the genes published by the American Type Culture Collection (ATCC) (Manassas, Va.). The parental cell line MHH-NB11 was kindly provided by Dr. T. Pietsch (Department of Neuropathology, University of Bonn Medical Center, Bonn, Germany).
as §1, with “After an incubation of 24 hr, cells were washed and incubated with the relevant factors (detailed in the following sections) diluted in starvation medium (RPMI-1640 containing 5% bovine serum albumin (BSA); Biological Industries, Kibbutz Beit Haemek, Israel; Sigma-Aldrich).” left out
Circular dichroism analysis of human hemoglobin (HB), hemoglobin subunit alpha (HBA) and subunit beta (HBB) indicated a helical structure for all three proteins (FIG. 3C). […] Cell viability under normal conditions (starvation medium) or after incubation with human HBB was monitored after an incubation of 72 hr using an MTS-based viability assay (CellTiter 96® AQueous One Solution Cell Proliferation Assay, Promega) according to the manufacturer instructions. […] Significance was evaluated using Student's t-test for each variant incubated with human HBB compared to incubation with control media (con).

[6] = tested on: MicroNB cells (human neuroblastoma lung micrometastatic variant, MHH-NB11); experiment: MTS-based viability assay, MicroNB cells; assay type: cell-based; conditions: 10 μg human HBB, 72 hr, FIG. 3D
Source text: as §3, §1
Circular dichroism analysis of human hemoglobin (HB), hemoglobin subunit alpha (HBA) and subunit beta (HBB) indicated a helical structure for all three proteins (FIG. 3C). […] Neuroblastoma cells were seeded (3×10^4 per well) in a 96 well flat-bottomed tissue culture plate. After 24 hr of incubation cells were washed and incubated with human HBB dissolved in starvation medium (RPMI 5% BSA) to the indicated concentrations. Cell viability under normal conditions (starvation medium) or after incubation with human HBB was monitored after an incubation of 72 hr using an MTS-based viability assay (CellTiter 96® AQueous One Solution Cell Proliferation Assay, Promega) according to the manufacturer instructions. Data are means of three independent experiments±SD. Significance was evaluated using Student's t-test for each variant incubated with human HBB compared to incubation with control media (con).

For “HBB: beta subunit of human hemoglobin, 147 amino acids, SEQ ID NO:2, HPLC-purified from native human hemoglobin”, the “influence on the viability of normal cells” value [1] was “did not influence the viability”, the “elevation of the amount of MacroNB cells in G0-G1 phase” value (MacroNB cells [2]; FIG. 4B) was 23% and the “elevation of the amount of MacroNB cells in the sub G0 phase” value (MacroNB cells [2]; data not shown) was 11%. The “non-viable MacroNB cells following incubation” value (MacroNB cells [3]) was 8%, the “non-viable MicroNB cells following incubation” value (MicroNB cells) was 16% and the “ERK phosphorylation in MicroNB cells” value [4] was “decreased”. For the same substance, the “decrease in viability of MacroNB cells” value [5] was 29% and the “decrease in viability of MicroNB cells” value [6] was 52%.
